From the supplement of paper PMC10307832

Experiments:
Test in all cases: relative viability (nuclei count vs DMSO), 5 days (fraction); higher = more cells survive
SGI-1776 + Tozasertib = compound: CN1CCC(CNc2ccc3ncc(-c4cccc(OC(F)(F)F)c4)n3n2)CC1 [SGI-1776] + Cc1cc(Nc2cc(N3CCN(C)CC3)nc(Sc3ccc(NC(=O)C4CC4)cc3)n2)n[nH]1 [Tozasertib] (partner 0.1 µM)
Method in brief: (§1)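 After 5 days of treatment, lung cancer cells in 1536-well plates were fixed and stained in a single step (final 0.05% Triton X-100, 1% formaldehyde, 1 ug/ml Hoechst) and their nuclei counted on 4× images. Treatment had been applied by pin tool the day after seeding as one drug alone or as a fixed anchor-drug dose with five library-drug doses (not always all listed) in √10 steps. Relative viability is the nuclei count of treated wells divided by that of vehicle wells, and values are medians of duplicate plates.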

Entinostat + Palbociclib = compound: Nc1ccccc1NC(=O)c1ccc(CNC(=O)OCc2cccnc2)cc1 [Entinostat] + CC(=O)c1c(C)c2cnc(Nc3ccc(N4CCNCC4)cn3)nc2n(C2CCCC2)c1=O [Palbociclib] (partner 0.5 µM)
Method in brief: as §1

Entinostat + Alpelisib = compound: Nc1ccccc1NC(=O)c1ccc(CNC(=O)OCc2cccnc2)cc1 [Entinostat] + Cc1nc(NC(=O)N2CCC[C@H]2C(N)=O)sc1-c1ccnc(C(C)(C)C(F)(F)F)c1 [Alpelisib] (partner 2 µM)
Method in brief: as §1

Entinostat + Decitabine = compound: Nc1ccccc1NC(=O)c1ccc(CNC(=O)OCc2cccnc2)cc1 [Entinostat] + Nc1ncn([C@H]2C[C@H](O)[C@@H](CO)O2)c(=O)n1 [Decitabine] (partner 2 µM)
Method in brief: as §1

Row | Cell Line | relative viability (SGI-1776 + Tozasertib; first compound 0.08 µM) | relative viability (SGI-1776 + Tozasertib; first compound 0.8 µM) | relative viability (SGI-1776 + Tozasertib; first compound 2.53 µM) | relative viability (SGI-1776 + Tozasertib; first compound 8 µM) | relative viability (Entinostat + Palbociclib; first compound 0.02 µM) | relative viability (Entinostat + Palbociclib; first compound 0.06325 µM) | relative viability (Entinostat + Palbociclib; first compound 0.2 µM) | relative viability (Entinostat + Palbociclib; first compound 0.6325 µM) | relative viability (Entinostat + Palbociclib; first compound 2 µM) | relative viability (Entinostat + Alpelisib; first compound 0.02 µM) | relative viability (Entinostat + Alpelisib; first compound 0.06325 µM) | relative viability (Entinostat + Alpelisib; first compound 0.2 µM) | relative viability (Entinostat + Alpelisib; first compound 0.6325 µM) | relative viability (Entinostat + Alpelisib; first compound 2 µM) | relative viability (Entinostat + Decitabine; first compound 0.02 µM) | relative viability (Entinostat + Decitabine; first compound 0.06325 µM) | relative viability (Entinostat + Decitabine; first compound 0.2 µM) | relative viability (Entinostat + Decitabine; first compound 0.6325 µM) | relative viability (Entinostat + Decitabine; first compound 2 µM)
1 | H3255 | 0.574 | 0.825 | 0.625 | 0.277 | 0.339 | 0.345 | 0.348 | 0.301 | 0.27 | 0.637 | 0.594 | 0.548 | 0.363 | 0.289 | 0.58 | 0.556 | 0.493 | 0.268 | 0.218
2 | EMC-BAC-2 | 0.285 | 0.257 | 0.212 | 0.224 | 0.532 | 0.468 | 0.443 | 0.388 | 0.294 | 0.797 | 0.795 | 0.776 | 0.636 | 0.394 | 0.988 | 0.916 | 0.815 | 0.486 | 0.364
3 | NCI-H661 | 0.347 | 0.378 | 0.336 | 0.379 | 0.411 | 0.464 | 0.429 | 0.391 | 0.355 | 0.733 | 0.735 | 0.68 | 0.856 | 0.683 | 0.58 | 0.549 | 0.538 | 0.479 | 0.356
4 | SK-MES-1 | 0.964 | 0.35 | 0.154 | 0.133 | 0.31 | 0.395 | 0.394 | 0.43 | 0.422 | 0.932 | 1.02 | 1.05 | 0.81 | 0.682 | 0.362 | 0.36 | 0.434 | 0.303 | 0.331
5 | NCI-H1437 | 0.435 | 0.439 | 0.344 | 0.314 | 0.236 | 0.182 | 0.204 | 0.178 | 0.122 | 0.822 | 0.594 | 0.388 | 0.167 | 0.138 | 0.522 | 0.436 | 0.357 | 0.267 | 0.217
